Assay results: US11649220B2 (DEMOTECH.INC., priority 2018, dated 2023)

Assays:
[1] = In vitro free radical inhibition test (DPPH method); conditions: 8 μL of 20 mmol/L compound in 1 mL DPPH 0.059 mg/mL ethanol, 60 min dark, 517 nm; for inhibition rate %: DPPH; for Relative inhibition ability on free radicals: inhibition rate of AGI1067 on DPPH defined as 100
Procedure, shortened: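 DPPH in absolute ethanol (0.059 mg/mL) was mixed with test compound (20 mmol/L stock) and kept in the dark at room temperature for 60 minutes. Radical scavenging was read as loss of absorbance at 517 nm.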

[2] = tested on: golden hamsters (60% high-fat food, STZ induced); assay: Golden hamster disease model, animal model induction group (16-week-old group): blood biochemical indexes and body weight; format: in vivo; conditions: for change rate of blood glucose %: 0.1 mL of 6.8 mg/mL DMSO solution + 0.25 mL whole milk by gavage once a day for 2 weeks; for change rate of body weight after deduction of DMSO blank %: DMSO blank deducted; for average body weight after administration/g / change of body weight/g / change rate of body weight %: after gavage once a day for 2 weeks; for HDL % / LDL % / total cholesterol % / triglyceride %: change rate, gavage once a day for 2 weeks
Protocol: (§1) Animals and feed: 1) 8-week-old male golden hamsters with a body weight range of 100±5 g were selected; 2) 60% high-fat food; 3) 30% high-fat food; 4) general feed: NRC standard feed, containing 5% fat, total calories 4200 kcal/kg.
Animal model induction group (16-week-old group): 1) fed with 60% high-fat food for 2 weeks under standard environment; 2) STZ intraperitoneal injection twice every two days, 50 mg/kg each time; 3) After STZ induction, the golden hamsters were continuous fed for 1 week; 4) Blood was taken from the ocular venous plexus, and the initial body weight, blood glucose, total cholesterol, LDL-c, HDL-c and triglyceride were measured, and the golden hamsters were grouped in parallel according to animal biochemical indicators, 8 in each group; 5) Gavage of compounds: 0.1 mL of solution of compound (concentration: 6.8 mg/mL, DMSO solution) and 0.25 mL of whole milk were mixed evenly and administrated by gavage once a day for 2 weeks; 6) Blank control: 0.1 mL of DMSO and 0.25 mL of whole milk were mixed evenly and administrated by gavage once a day for 2 weeks; 7) Observation time: 14 days later, blood was taken from the ocular venous plexus, and the body weight, blood glucose, total cholesterol, LDL-c, HDL-c and triglyceride were measured.
(§2) Instruments: Shimadzu UV-1750 spectrophotometer, clinical determination kit (Changchun Huili Biotechnology Co., Ltd.)
(§3) Determination of blood glucose: glucose oxidase method, kit
(§4) Determination of total cholesterol (COD-PAP method), kit
(§5) Determination of low density lipoprotein cholesterol (direct method), kit
(§6) Determination of triglyceride (GP-PAP method)
(§7) Determination of high density lipoprotein (direct method), kit

[3] = tested on: golden hamsters (high-fat food, STZ induced); assay: Golden hamster disease model, animal model induction group (24-week-old group): blood biochemical indexes and body weight; format: in vivo; conditions: for change rate of blood glucode %: 0.1 mL of 6.8 mg/mL DMSO solution + 0.25 mL whole milk by gavage once a day for 2 weeks; for change rate of body weight after deduction of DMSO blank %: DMSO blank deducted; for change of body weight/g / change rate of body weight %: after gavage once a day for 2 weeks; for HDL % / LDL % / total cholesterol % / triglyceride %: change rate, gavage once a day for 2 weeks; for average body weight at 24 weeks/g: initial weight before administration
Description: as §1
Animal model induction group (24-week-old group): After STZ induction, the golden hamsters were continuous fed with 30% high-fat food for 8 weeks, blood was taken from the ocular venous plexus, and the initial body weight, blood glucose concentration, total cholesterol, LDL-c, HDL-c and triglyceride were measured, and the golden hamsters were grouped in parallel according to animal biochemical indicators, 8 in each group; 5) Gavage of compounds: 0.1 mL of solution of compound (concentration: 6.8 mg/mL, DMSO solution) and 0.25 mL of whole milk were mixed evenly and administrated by gavage once a day for 2 weeks; 6) Blank control: 0.1 mL of DMSO and 0.25 mL of whole milk were mixed and administrated by gavage, once a day for 2 weeks; 6) Blank control: 0.1 mL of DMSO were mixed with 0.25 mL of whole milk, and administrated by gavage, once a day for 2 weeks; 7) 14 days later, blood was taken from the ocular venous plexus, and the body weight, blood glucose, total cholesterol, LDL-c, HDL-c and triglyceride were measured.
as §2, §3, §4, §5, §6, §7

[4] = tested on: Malondialdehyde (MDA) in serum; assay: In vivo anti-lipid oxidation experiment (serum MDA, TBA method); set-up: inhibition rate %: concentration or dose not given beside the values; conditions: MAD lipid peroxidation in vivo; for inhibition rate %: relative to solvent DMSO and Chow averages; for avarage value of OD: serum, TBA method, 532 nm
Procedure, shortened: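 Serum mixed with TBA-based reagents in acetic acid, heated at 95° C for 60 min, centrifuged, supernatant OD read at 532 nm. MDA calculated against 10 nmol/mL tetraethoxypropane standard after subtracting a per-sample control tube (50% glacial acetic acid replacing Reagent III); inhibition % normalised between Chow and DMSO-solvent groups.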

Row | SMILES | inhibition rate % [1] [%] | Relative inhibition ability on free radicals [1] | change rate of blood glucose % [2] [%] | change rate of body weight after deduction of DMSO blank % [2] [%] | average body weight after administration/g [2] [g] | change of body weight/g [2] [g] | change rate of body weight % [2] [%] | HDL % [2] [%] | LDL % [2] [%] | total cholesterol % [2] [%] | triglyceride % [2] [%] | change rate of blood glucode % [3] [%] | change rate of body weight after deduction of DMSO blank % [3] [%] | change of body weight/g [3] [g] | change rate of body weight % [3] [%] | HDL % [3] [%] | LDL % [3] [%] | total cholesterol % [3] [%] | triglyceride % [3] [%] | average body weight at 24 weeks/g [3] [g] | other results
1 | COC(=O)CNCCC(C)(C)c1cc(SC(C)(C)Sc2cc(C(C)(C)C)c(O)c(C(C)(C)C)c2)cc(C(C)(C)C)c1O [Compound 21] | 22.3 | 51.2 | −35.5 | −1.6 | 142.5 | 10.7 | 8.1 | 56.3 | 14.2 | −0.6 | −6.5 | −12.4 | −6.1 | -16.4 | −13.6 | −70.1 | −21.8 | 23.5 | −65.1 | 120.0 | inhibition rate % [4]: 53.3%; avarage value of OD [4]: 7.23
2 | CC(C)(Sc1cc(C(C)(C)C)c(O)c(C(C)(C)C)c1)Sc1cc(C(C)(C)C)c(OC(=O)CCC(=O)NCCS(=O)(=O)O)c(C(C)(C)C)c1 [Compound 26, 2-(4-(2,6-di-tert-butyl-4-((2-((3,5-di-tert-butyl-4-hydroxyphenyl)thio)propan-2-yl)thio)phenoxy)-4-oxobutanamido)ethane-1-sulfonic acid] | 16.3 | 37.4 | −16.8 | −2.9 | 145.2 | 9.4 | 6.9 | 108.8 | −6.2 | −9.0 | 3.0 | −14.2 | −6.4 | -18.1 | −13.9 | −67.5 | −23.0 | 30.5 | −5.1 | 130.1 | inhibition rate % [4]: 108.7%; avarage value of OD [4]: 5.10
